Results from PMC6804243, “Small-Molecule Inhibition of UBE2T/FANCL-Mediated Ubiquitylation in the Fanconi Anemia Pathway” (ACS Chemical Biology, 2019).

Columns and labels:
[1] = tested on: pS345 CHK1, γH2AX, pS824 KAP1, PARP1; experiment: Immunoblot of DNA damage biomarkers (pS345 CHK1, γH2AX, pS824 KAP1, PARP1 cleavage) in U2OS cells; format: cell-based; settings: 8 h, CU1 200 μM or CU2 500 μM; for levels of pS824 KAP1 / levels of pS345 CHK1: HU 2.5 mM; for levels of pS345 CHK1: relative to DMSO control; for levels of γH2AX (immunoblot): in combination with HU 2.5 mM, relative to HU plus DMSO
Protocol: As DNA damage induced by HU is cell-cycle-dependent, it was necessary to establish whether CU1 and CU2 might simply prevent cells from entering the S-phase, which would also manifest itself as a reduction in mUb-FANCD2. This was determined by analysis of several biomarkers linked to DNA damage in cycling cells. Activated CHK1 (pS345 CHK1) phosphorylates CDC25A, inducing the transient arrest of cells in the S-phase, or in G2 before the onset of mitosis.[18] […] These observations were also confirmed by cell cycle analysis.
Following the generation of DNA DSBs, ATM, ATR, and/or DNA-PKcs mediated phosphorylation of histone H2AX generates the phosphorylated species, γH2AX.[19] […] Following HU treatment, DSBs are formed if stalled replication forks are not stabilized and subsequently collapse. Therefore, we concluded that CU1 and CU2 appeared to act by impairing the ability of cells to stabilize and repair stalled replication forks. This is consistent with CU1 and CU2 inhibiting the formation of mUb-FANCD2, which would otherwise play a role in stabilizing stalled replication forks, thus preventing their collapse and the formation of DSBs.
In response to DSB formation, the transcriptional repressor and RING finger protein, KAP1, is released from chromatin, following its ATM-mediated phosphorylation on Ser824.[20] […] An increase in the number of DSBs could also have been caused by apoptosis. In cells undergoing apoptosis, PARP1 is cleaved from a full-length 116 kDa protein into 89 and 24 kDa polypeptides by caspase-3.[21]
Reaction mixtures were incubated for the indicated time at 37 °C and stopped by the addition of 2X reducing SDS -PAGE sample buffer, separated on NuPAGE Novex 4 –12% Bis/Tris gradient gels (Invitrogen) and visualized by Western blotting using the indicated antibodies (Table S3).
Cell culture. U2OS cells were cultured at 37 °C in a humidified atmosphere and 5% (v/v) CO2 in Dulbecco's Modified Eagle Medium (DMEM; Sigma-Aldrich) supplemented with 10% (v/v) fetal bovine serum (FBS), 100 units/ml of penicillin, […] of streptomycin and 292 μg/mL L-glutamine.
Cell extract preparation and immunoblotting. U2OS cells were lysed in buffer containing 50 mM Tris-HCl pH 7.5, 2% SDS, 10 mM NEM, cocktail protease inhibitor (Roche) and phosphatase inhibitor cocktail followed by sonication 100 µg of extracts were boiled for 5 mins at 95 °C in 5X loading buffer and loaded onto NuPAGE Novex 4–12% Bis/Tris gradient gels
(Invitrogen), or NuPAGE Novex 3-8% Tris/Acetate gradient gels (Invitrogen) for detection of mUb-FANCD2. After separation the gels were transferred to PVDF and the membranes were blocked with Tris-buffered saline containing 0.1% (v/v) Tween-20 (TBST) and 5% (v/v) bovine serum albumin (BSA) and incubated with the indicated primary and secondary antibodies. mUb-FANCD2 intensity was quantified using Image Studio (LI-COR).
IncuCyte cell proliferation assays. 2000 U2OS cells were seeded per well in 96-well plates and treated with compounds 24 hours afterwards. After 1 hour of compound treatment, 15 µM carboplatin (Sigma-Aldrich) was added and the cells were cultured in an incubator with an IncuCyte microscopy -platform (Essen BioScience). Phase -contrast images were acquired every 6 hours for 8 days until DMSO-carboplatin treated cells reached >80% confluence. Cell proliferation was monitored as the occupied area (% confluence) of cell images over time and calculated as percentage confluence over time. Cell confluency percentages were calculated using the integrated Cell Player software and results were analysed with Prism 6 (GraphPad Software).

[2] = tested on: mUb-H2A and total protein ubiquitylation; experiment: Immunoblot of widespread cellular ubiquitylation (mUb-H2A, FK2 antibody); format: cell-based; settings: U2OS; CU1 200 μM or CU2 500 μM; with or without HU 2.5 mM, 8 h
Protocol: Figure 3 Cell-based assays with CU1 and CU2: (a) Western blot showing that the formation of mUb-FANCD2(*), in response to HU treatment (2.5 mM, 8 h), is impaired in U2OS cells in the presence of CU1 (200 μM) or CU2 (500 μM). Ratio = mUb-FANCD2/FANCD2 (normalized to DMSO control). mUb-FANCD2 was resolved on a separate gel. PARP1 was used as a loading control for each gel, as well as to assess apoptosis. (b) Quantification of the reduction in mUb-FANCD2, in response to HU treatment (2.5 mM, 8 h) in the presence of CU1 (200 μM) or CU2 (500 μM). Mean calculated from three independent experiments. […] TEXT PRINTED IN THE PICTURE: (d) DMSO: S-phase 42.7; G1 29.2; G2-M 27.8 | (d) HU: S-phase 0.24; G1 72.4; G2-M 22.9 | (d) CU1: S-phase 43.4; G1 26.8; G2-M 29.1 | (d) CU2: S-phase 39.7; G1 31.9; G2-M 28.2 DOUBTS OF THE COPYIST ABOUT THIS PICTURE: Panel d print is small, so these digits are best readings: DMSO G2-M 27.8 (8 or 6); CU1 G1 26.8 (6 or 8); CU2 S-phase 39.7 (9 or 8); CU2 G2-M 28.2 (8 or 6) / Panels a and c: the lane ratios printed under the western blots (a: 1.0, 0.64, 0.40; c: 1.0/0.65, 1.0/0.63, 1.0/0.53) were left out because they belong to blots and the picture prints no measure for them […]
To investigate if the compounds were affecting more widespread ubiquitylation events in the cell, the monoubiquitylation status of histone H2A was assessed (mUb-H2A; Figure 3a). […]

Compound	levels of pS824 KAP1 [1]	levels of pS345 CHK1 [1]	levels of γH2AX (immunoblot) [1]	total protein ubiquitylation (FK2 antibody) [2]
CCN1CCN(c2cc(C)nc3nc(CN4CCCCC4C)nn23)CC1 (centres unmarked) [CU2]	increased levels of pS824 KAP1	Comparable levels of pS345 CHK1	somewhat increased the levels of γH2AX	do not affect total protein ubiquitylation
NCCN1C(=O)CC[C@H]2CN(Cc3cccc(-c4ccco4)c3)CC[C@H]21 [CU1]	increased levels of pS824 KAP1	Comparable levels of pS345 CHK1	somewhat increased the levels of γH2AX	do not affect total protein ubiquitylation
